According to ChEMBL document CHEMBL1671651, “Azithromycin in Pseudomonas aeruginosa biofilms: bactericidal activity and selection of nfxB mutants” (2009):
≈ marks a conversion by molar mass, not a printed value. Calls of active or inactive are those of the source. The calls are words filed in the database; no cut-off is given here.

Key:
Pseudomonas aeruginosa [1] = assay: Bactericidal activity against mucA::lox-deficient Pseudomonas aeruginosa PAOMA biofilm assessed as reduction in bacterial load at => 4 ug/ml upto 7 days; format: functional, organism-based
Pseudomonas aeruginosa [2] = assay: Antimicrobial activity against mucA::lox-deficient Pseudomonas aeruginosa PAOMA planktonic cells by microdilution method; format: functional
Pseudomonas aeruginosa [3] = assay: Bactericidal activity against mucA::lox, mutS::lox-deficient Pseudomonas aeruginosa PAOMSA biofilm assessed as increase in viable cells at 4 ug/ml for 4 days; format: functional, organism-based
Pseudomonas aeruginosa [4] = assay: Bactericidal activity against mutS::lox-deficient Pseudomonas aeruginosa PAOMS biofilm assessed as reduction in bacterial load at 0.5 ug/ml for 7 days measured on day 1; format: functional
Pseudomonas aeruginosa [5] = assay: Antimicrobial activity against mucA::lox, mutS::lox-deficient Pseudomonas aeruginosa PAOMSA planktonic cells by microdilution method; format: functional
Pseudomonas aeruginosa [6] = assay: Bactericidal activity against mucA::lox, mutS::lox-deficient Pseudomonas aeruginosa PAOMSA biofilm assessed as increase in viable cells at 4 ug/ml for 7 days; format: functional, organism-based
Pseudomonas aeruginosa [7] = assay: Bactericidal activity against mutS::lox-deficient Pseudomonas aeruginosa PAOMS biofilm assessed as increase in viable cells at 4 ug/ml for 7 days; format: functional, organism-based
Pseudomonas aeruginosa [8] = assay: Antimicrobial activity against nfxB gene-deficient Pseudomonas aeruginosa PAONB assessed as increase in viable cells at 0.5 to 4 ug/ml after 24 hrs relative to wild-type; format: functional
Pseudomonas aeruginosa [9] = assay: Antimicrobial activity against mexD gene-deficient Pseudomonas aeruginosa […] assessed as increase in viable cells at 0.5 to 4 ug/ml after 24 hrs relative to wild-type; format: functional
Pseudomonas aeruginosa [10] = assay: Bactericidal activity against mutS::lox-deficient Pseudomonas aeruginosa PAOMS biofilm assessed as increase in viable cells at 4 ug/ml for 4 days; format: functional, organism-based
Pseudomonas aeruginosa [11] = assay: Bactericidal activity against Pseudomonas aeruginosa PAO1 biofilm assessed as reduction in bacterial load at => 4 ug/ml upto 7 days; format: functional, organism-based
Pseudomonas aeruginosa [12] = assay: Bactericidal activity against mutS::lox-deficient Pseudomonas aeruginosa PAOMS biofilm assessed as reduction in bacterial load at 256 ug/ml for 7 days measured on day 1; format: functional
Pseudomonas aeruginosa [13] = assay: Bactericidal activity against Pseudomonas aeruginosa PAO1 biofilm assessed as reduction in bacterial load at 256 ug/ml for 7 days measured on day 1; format: functional
Pseudomonas aeruginosa [14] = assay: Antimicrobial activity against mutS::lox-deficient Pseudomonas aeruginosa PAOMS planktonic cells by microdilution method; format: functional
Pseudomonas aeruginosa [15] = assay: Bactericidal activity against mutS::lox-deficient Pseudomonas aeruginosa PAOMS biofilm assessed as increase in viable cells at day 7 relative to wild-type; format: functional
Pseudomonas aeruginosa [16] = assay: Antimicrobial activity against Pseudomonas aeruginosa PAO1 planktonic cells by microdilution method; format: functional
Pseudomonas aeruginosa [17] = assay: Bactericidal activity against mucA::lox, mutS::lox-deficient Pseudomonas aeruginosa PAOMSA biofilm assessed as increase in viable cells relative to […]; format: functional
Pseudomonas aeruginosa [18] = assay: Bactericidal activity against mucA::lox, mutS::lox-deficient Pseudomonas aeruginosa PAOMSA biofilm assessed as increase in viable cells at 16 ug/ml; format: functional, organism-based
Pseudomonas aeruginosa [19] = assay: Bactericidal activity against mucA::lox, mutS::lox-deficient Pseudomonas aeruginosa PAOMSA biofilm assessed as reduction in bacterial load at 256 ug/ml for 7 days measured on day 1; format: functional
Pseudomonas aeruginosa [20] = assay: Bactericidal activity against Pseudomonas aeruginosa PAO1 biofilm assessed as reduction in bacterial load at 0.5 ug/ml for 7days measured on day 1; format: functional

Compound: CC[C@H]1OC(=O)[C@H](C)[C@@H](O[C@H]2C[C@@](C)(OC)[C@@H](O)[C@H](C)O2)[C@H](C)[C@@H](O[C@@H]2O[C@H](C)C[C@H](N(C)C)[C@H]2O)[C@](C)(O)C[C@@H](C)CN(C)[C@H](C)[C@@H](O)[C@]1(C)O [AZITHROMYCIN]
- Activity (Pseudomonas aeruginosa [1]): Active
- MIC (Pseudomonas aeruginosa [2]): 128 µg/mL (≈ 171 µM)
- Activity (Pseudomonas aeruginosa [3]): inactive
- log10cfu (Pseudomonas aeruginosa [4]): 2
- MIC (Pseudomonas aeruginosa [5]): 128 µg/mL (≈ 171 µM)
- Activity (Pseudomonas aeruginosa [6]): inactive
- Activity (Pseudomonas aeruginosa [7]): inactive
- fold change (FC) (Pseudomonas aeruginosa [8]): 1
- fold change (FC) (Pseudomonas aeruginosa [9]): 1
- Activity (Pseudomonas aeruginosa [10]): inactive
- Activity (Pseudomonas aeruginosa [11]): Active
- log10cfu (Pseudomonas aeruginosa [12]): 4
- log10cfu (Pseudomonas aeruginosa [13]): 4
- MIC (Pseudomonas aeruginosa [14]): 128 µg/mL (≈ 171 µM)
- fold change (FC) (Pseudomonas aeruginosa [15]): 50
- MIC (Pseudomonas aeruginosa [16]): 128 µg/mL (≈ 171 µM)
- fold change (FC) (Pseudomonas aeruginosa [17]): 5000
- Activity (Pseudomonas aeruginosa [18]): inactive
- log10cfu (Pseudomonas aeruginosa [19]): 2
- log10cfu (Pseudomonas aeruginosa [20]): 2
